Test results reported in PMC11053489 (Viruses, 2024).
Counter-ions that a name gives are not always drawn. Like-named read-outs stand apart in the source and are kept apart here.

Tests used:
[1] = system: SARS-CoV-2 (hCoV-19/USA-WA1/2020) in Caco-2 cells; experiment: microbe, parasite or virus in culture; conditions: Severe acute respiratory syndrome coronavirus 2, Caco-2, 72 h; for EC50: read-out: Caco-2 SARS-CoV-2 EC50; for EC90: read-out: Caco-2 SARS-CoV-2 EC90
[2] = MTS cytotoxicity assay, PBM cells; conditions: human
[3] = MTS cytotoxicity assay, Caco-2 cells; conditions: human
[4] = cited from earlier work
[5] = MTS cytotoxicity assay, Vero CCL-81 cells; conditions: African green monkey
[6] = system: SARS-CoV-2 (hCoV-19/USA-WA1/2020) in Calu-3 cells; experiment: microbe, parasite or virus in culture; assay type: cell-based; conditions: for EC50: read-out: Calu-3 SARS-CoV-2 EC50; for EC90: read-out: Calu-3 SARS-CoV-2 EC90; for anti-SARS-CoV-2 activity in Calu-3 cells (in words): tested up to 100 μM
[7] = MTS cytotoxicity assay, CEM cells; conditions: human
[8] = system: SARS-CoV-2 (hCoV-19/USA-WA1/2020) in Vero CCL-81 cells; experiment: microbe, parasite or virus in culture; assay type: cell-based; conditions: for EC50: read-out: Vero CCL-81 SARS-CoV-2 EC50; for EC90: read-out: Vero CCL-81 SARS-CoV-2 EC90
[9] = system: SARS-CoV-2 (hCoV-19/USA-WA1/2020) in Caco-2 cells
[10] = MTS cytotoxicity assay, Calu-3 cells; conditions: human
[11] = Peak plasma concentration
[12] = MTS cytotoxicity assay, Huh-7 cells; conditions: human
in vitro [13] = conditions: human
[14] = system: primary human peripheral blood mononuclear cells (PBM); conditions: for PBM CC50 {Unbound}: human
in vitro [15] = conditions: human; remark: listed apart in the source
in vitro [16] = conditions: human, Caco-2
CCRF-CEM cells = conditions: human
Vero CCL-81 cells = conditions: for Vero CC50 {Unbound}: African green monkey
[17] = human, in vivo
Huh-7 cells = conditions: for Huh7 CC50 {Unbound}: human
in vitro [18] = conditions: African green monkey
in vitro [19] = conditions: human; remark: listed apart in the source
in vitro [20] = conditions: human; remark: listed apart in the source
[21] = in vivo, iv; cited from earlier work
[22] = system: COVID-19 / SARS-CoV-2 infection; conditions: with standard medical care versus placebo plus standard care, 38 ambulatory individuals; cited from earlier work
[23] = Table 1, ref column Refs of Table 1
[24] = Severe acute respiratory syndrome coronavirus 2, Calu-3, MOI 0.01, 72 h, 2% FBS
[25] = Severe acute respiratory syndrome coronavirus 2, Table 1 drugs, MOI 0.1, 48 h, 2% FBS
[26] = Severe acute respiratory syndrome coronavirus 2, Calu-3, 72 h
[27] = Severe acute respiratory syndrome coronavirus 2, 48 h

SMILES	EC50 [1] [µM]	EC90 [1] [µM]	CC50 at 5 days [2] [µM]	CC50 at 3 days [3] [µM]	Fun (unbound fraction of drug in plasma) [4, 23]	CC50 at 3 days [5] [µM]	EC50 [6, 24] [µM]	EC50 [8, 25] [µM]	CC50 at 3 days [10] [µM]	Cmax (μM) {unbound} ([11]; human, in vivo) [µM]	CC50 at 4 days [12] [µM]	CC50 at 3 days (in vitro [13]) [µM]	CC50 at 5 days (in vitro [15]) [µM]	CC50 at 3 days (in vitro [16]) [µM]	Cmax (μM) {unbound} [17] [µM]	CC50 at 3 days (in vitro [18]) [µM]	Caco-2 Unbound Cmax/EC50 ([9]; Caco-2)	EC90 [8, 25] [µM]	other results
COCCCC/C(=N\OCCN)c1ccc(C(F)(F)F)cc1 [Fluvoxamine (maleate)]	17.9	47.5	35.4	> 100	0.23	35.5	> 100	> 100	> 100	0.003	36.7	–	–	–	–	–	–	–	CC50 at 4 days ([7]; CEM CC50, 4 days): 20 µM; anti-SARS-CoV-2 activity (in words), concentrations up to 100 μM ([8]; Vero CCL-81 cells, up to 100 μM): inactive; Caco-2 Unbound Cmax/EC50 ([9]; Cmax × Fun/EC50): 0.0017
O=c1c2ccccc2[se]n1-c1ccccc1 [Ebselen]	> 100	–	–	–	–	–	–	–	–	–	–	> 100	93.2	> 100	0.013	22.4	–	–	Fun (unbound fraction of drug in plasma) ([4]; plasma): 0.05; EC50 [6, 26]: 6.5 µM; EC90 [6, 26]: > 10 µM; PBM CC50 {Unbound} ([14]; 5 days): 75.5 µM; EC50 [8, 27]: 1.1 µM; EC90 [8, 27]: 2.7 µM; CEM CC50 {Unbound} (CCRF-CEM cells; 4 days): 42.3 µM; Vero CC50 {Unbound} (Vero CCL-81 cells; 3 days): 20.3 µM; Huh7 CC50 {Unbound} (Huh-7 cells; 4 days): 76.3 µM
CC(C)(C)[C@H](NC(=O)C(F)(F)F)C(=O)N1C[C@H]2[C@@H]([C@H]1C(=O)N[C@H](C#N)C[C@@H]1CCNC1=O)C2(C)C [Nirmatrelvir]	0.1	0.3	–	–	0.31	–	–	–	–	–	–	–	–	–	–	–	6.8	–	CC50 (in vitro [13]): > 100 µM; EC50 [6, 26]: 1.8 µM; EC90 [6, 26]: 8.8 µM; CC50 (in vitro [19]; CEM CC50, 4 days): > 100 µM; EC50 [8, 27]: 3.7 µM; EC90 [8, 27]: 5.6 µM; CC50 (in vitro [15]): > 100 µM; CC50 (in vitro [16]): > 100 µM; Cmax (μM) {unbound} ([11]; Table 1, Cmax × Fun): 2.13 µM; CC50 (in vitro [20]): > 100 µM; CC50 (in vitro [18]): > 100 µM
O=c1nc(NO)ccn1[C@@H]1O[C@H](CO)[C@@H](O)[C@H]1O [NHC, β-D-N4-hydroxycytidine]	–	–	–	–	–	–	–	–	–	–	–	–	–	–	–	–	–	–	CC50 [14]: 59.8 µM; CC50 (Caco-2 cells): > 100 µM; CC50 (Vero CCL-81 cells): 18.8 µM; plasma t1/2 [21]: 3.3 h; CC50 (Huh-7 cells): 59.1 µM; CC50 (Calu-3 cells): > 100 µM
Cc1cccc(/C=N/Nc2cc(N3CCOCC3)nc(OCCc3ccccn3)n2)c1 [Apilimod mesylate]	85	> 100	–	–	–	–	> 100	0.7	–	–	–	> 100	> 100	> 100	0.043	> 100	0.0005	7.4	anti-SARS-CoV-2 activity in Calu-3 cells (in words) [6]: inactive; CEM CC50 {Unbound} (CCRF-CEM cells; 4 days): 62.2 µM; Huh7 CC50 {Unbound} (Huh-7 cells; 4 days): 54.8 µM
Cc1cccc(Nc2ccccc2C(=O)O)c1C [Mefenamic acid]	> 100	–	> 100	> 100	0.1	> 100	> 100	87.6	> 100	1.58	> 100	–	–	–	–	–	–	> 100	higher probability of achieving patient-acceptable symptoms on day 8 [22]: about 16 fold; CC50 at 4 days [7]: > 100 µM
CC(c1cc2ccccc2s1)N(O)C(N)=O (centres unmarked) [Zileuton]	> 100	–	–	–	0.07	–	> 100	6.7	–	–	–	46.7	> 100	> 100	0.16	> 100	0.003	35.8	CC50 at 4 days (in vitro [19]): > 100 µM; CC50 at 4 days (in vitro [20]): > 100 µM
CC(C)OC(=O)C(C)(C)Oc1ccc(C(=O)c2ccc(Cl)cc2)cc1 [Fenofibrate]	–	–	38.9	> 100	–	> 100	–	–	≥ 100	0.28	> 100	–	–	–	–	–	–	–	anti-SARS-CoV-2 activity in Calu-3 cells (in words) [6]: inactive; CC50 at 4 days ([7]; CEM CC50, 4 days): 28.5 µM; anti-SARS-CoV-2 activity in Caco-2 cells (in words) ([9]; tested up to 100 μM): inactive
NC(=O)c1nc(F)c[nH]c1=O [Favipiravir]	256	> 300	–	–	–	–	> 300	90.6	–	–	–	> 300	> 100	> 300	193	> 100	0.74	234	CC50 at 4 days (in vitro [19]): > 100 µM; CC50 at 4 days (in vitro [20]): > 100 µM
Cc1ccc(-c2cc(C(F)(F)F)nn2-c2ccc(S(N)(=O)=O)cc2)cc1 [Celecoxib]	0.7	1.2	> 100	59.1	–	50	3	7.2	70.5	0.056	31.1	–	–	–	–	–	–	14.6	EC90 [6, 24]: 6.3 µM; CC50 at 4 days [7]: 77.1 µM; Caco-2 Unbound Cmax/EC50 ([9]; Cmax × Fun/EC50): 0.08
COC(=O)N[C@H](C(=O)N1CCC[C@H]1c1nc(-c2ccc(-c3ccc(-c4c[nH]c([C@@H]5CCCN5C(=O)[C@@H](NC(=O)OC)C(C)C)n4)cc3)cc2)c[nH]1)C(C)C [Daclatasvir]	44.7	89.4	–	–	0.01	–	> 100	0.7	–	–	–	–	–	–	–	–	0.0005	3.5	PBM CC50 {Unbound} [14]: 36.4 {29.2} μM; CC50 (in vitro [16]): 67.6 µM; CEM CC50 {Unbound} (CCRF-CEM cells): 26.2 {23.6} μM; Vero CC50 {Unbound} (Vero CCL-81 cells): 50.6 {45.6} μM; Cmax (μM) {unbound} ([11]; Table 1, Cmax × Fun): 0.02 µM; Huh7 CC50 {Unbound} (Huh-7 cells): 53.6 {48.3} μM; CC50 (in vitro [18]): 50.6 µM
